Experimental data as given in patent publication US11805773B1, “Nanocomposite including water-soluble nano-polymer and mesoporous silica nanoparticles encapsulated with azole derivatives” (KING FAISAL UNIVERSITY, priority 2023, dated 2023).

Row | melting point [°C] | Compound
1 | 72 to 75 | COc1ccc(C2CC(c3ccc(Cl)cc3Cl)=NN2c2nc(-c3ccccc3)cs2)cc1 (stereo not shown) [1c, 2-(3-(2,4-dichlorophenyl)-5-(4-methoxyphenyl)-4,5-dihydro-1H-pyrazol-1-yl)-4-phenylthiazole]
2 | 158 to 159 | COc1ccc(C2CC(c3ccc(Cl)cc3Cl)=NN2c2nc(-c3ccc(Cl)cc3)cs2)cc1OC (stereo not shown) [1b, 4-(4-chlorophenyl)-2-(3-(2,4-dichlorophenyl)-5-(3,4-dimethoxyphenyl)-4,5-dihydro-1H-pyrazol-1-yl)thiazole]
3 | 140 to 141 | COc1ccc(C2CC(c3ccc(Cl)cc3Cl)=NN2c2nc(-c3ccc(Cl)cc3)cs2)cc1 (stereo not shown) [1d, 4-(4-chlorophenyl)-2-(3-(2,4-dichlorophenyl)-5-(4-methoxyphenyl)-4,5-dihydro-1H-pyrazol-1-yl)thiazole]
4 | 120 to 122 | COc1ccc(C2CC(c3ccc(Cl)cc3Cl)=NN2c2nc(-c3ccccc3)cs2)cc1OC (stereo not shown) [1a, 2-(3-(2,4-dichlorophenyl)-5-(3,4-dimethoxyphenyl)-4,5-dihydro-1H-pyrazol-1-yl)-4-phenylthiazole]
